Measurements reported in US20200276181A1, “THIENOISOQUINOLINES AND THEIR DERIVATIVES FOR TARGETING TUBULIN, CH-TOG, AURORA A KINASE, TPX2, CDK5RAP2 AND/OR ASPM” (VALORBEC, SEC, priority 2017, published 2020).

Tests used:
[1] = molecular target: T1, GFP-tagged ch-TOG (CKAP5) (Homo sapiens, UniProt Q14008); assay: GFP-tagged ch-TOG localization; assay type: cell-based; conditions: mitotic HeLa cells vs non-treated
T1 construct: expressed in transfected cells; host or cells: HeLa
Method: As shown in FIG. 2L and FIG. 6, in HeLa cells expressing SiR-tubulin or GFP-tagged ch-TOG (CKAP5), which localizes to centrosomes, the addition of 100-300 nM of C75 causes the spindle poles to collapse together in metaphase cells within 1-2 minutes. The spindles recover, but become uneven or multipolar.
ch-TOG contains multiple TOG domains that bind to tubulin dimers, and a microtubule-binding domain that binds to the microtubule lattice. If C75 were to bind and inhibit one or more of the TOG domains, this would shift its affinity onto microtubules, while inhibiting the microtubule domain would cause ch-TOG to become cytosolic.

[2] = test system: HFF1 cells; assay: Percentage of mitotic cells, paclitaxel +/- C75; assay type: cell-based; conditions: 200 nM C75 + paclitaxel
Method: FIG. 3A) is a line graph showing cytotoxicity of HeLa cells after treatment with varying concentrations of C75+/−a subthreshold dose of paclitaxel (Taxol™; 3 nM). The IC50 is shown by the dotted line. Bars show standard deviation. FIG. 3B) is a line graph showing the percentage of mitotic HeLa or HFF1 cells treated with a range of paclitaxel concentrations+/−C75 as indicated. The bars indicate standard deviation. FIG. 3C) is a series of bar graphs showing the proportion of HCT 116 cells with bipolar aligned (grey), bipolar misaligned (dark grey), multipolar/fragmented (light grey, top portion of each bar) or monopolar (black) spindles 7 hours after treatment with control (DMSO), varying concentrations of paclitaxel or C75, or both as indicated (n=691; N=3). The bars show standard deviation. The combination treatments were compared to paclitaxel and C75 on their own by calculating ratios varying from the predicted ratio, and found to synergize at 100 and 200 nM. FIG. 3D) is bar graph showing the average distance between centrosome fragments in HCT116 cells after treatments as shown. While centrosome fragments moved closer together with increased concentrations of paclitaxel, they moved further apart with increased concentrations of C75 (n=105; N=3). […]

[3] = test system: A549 cells; assay: IC50 of derivatives (Table 5); assay type: cell-based, human; conditions: Homo sapiens; Table 5; cell line only named in b213 (A549)
[4] = molecular target: Purified free alpha and beta tubulin dimers (Homo sapiens, UniProt P07437+Q71U36); assay: Microtubule polymerization in vitro; assay type: biochemical; conditions: 35 minutes at 37° C., Mg2+ and GTP, 20% glycerol buffer
Method: FIG. 10 is a graph showing microtubule polymerization in vitro in the presence of 200 nM C75 or DMSO (control). Bars show SEM. Microtubules fail to polymerize in the presence of C75, but not in control samples, showing that tubulin could be a target of C75 in vitro.
Purified free alpha and beta tubulin dimers were added at a concentration of […] to a 20% glycerol buffer and allowed to polymerize in the presence of Mg^2+ and GTP for 35 minutes at 37° C. While DMSO had no effect on microtubule polymerization, 200 nM of C75 prevented polymerization. […] This supports that C75 binds tubulin at a different site compared to other microtubule-depolymerizing drugs.

T1 sequence (Q14008 whole entry): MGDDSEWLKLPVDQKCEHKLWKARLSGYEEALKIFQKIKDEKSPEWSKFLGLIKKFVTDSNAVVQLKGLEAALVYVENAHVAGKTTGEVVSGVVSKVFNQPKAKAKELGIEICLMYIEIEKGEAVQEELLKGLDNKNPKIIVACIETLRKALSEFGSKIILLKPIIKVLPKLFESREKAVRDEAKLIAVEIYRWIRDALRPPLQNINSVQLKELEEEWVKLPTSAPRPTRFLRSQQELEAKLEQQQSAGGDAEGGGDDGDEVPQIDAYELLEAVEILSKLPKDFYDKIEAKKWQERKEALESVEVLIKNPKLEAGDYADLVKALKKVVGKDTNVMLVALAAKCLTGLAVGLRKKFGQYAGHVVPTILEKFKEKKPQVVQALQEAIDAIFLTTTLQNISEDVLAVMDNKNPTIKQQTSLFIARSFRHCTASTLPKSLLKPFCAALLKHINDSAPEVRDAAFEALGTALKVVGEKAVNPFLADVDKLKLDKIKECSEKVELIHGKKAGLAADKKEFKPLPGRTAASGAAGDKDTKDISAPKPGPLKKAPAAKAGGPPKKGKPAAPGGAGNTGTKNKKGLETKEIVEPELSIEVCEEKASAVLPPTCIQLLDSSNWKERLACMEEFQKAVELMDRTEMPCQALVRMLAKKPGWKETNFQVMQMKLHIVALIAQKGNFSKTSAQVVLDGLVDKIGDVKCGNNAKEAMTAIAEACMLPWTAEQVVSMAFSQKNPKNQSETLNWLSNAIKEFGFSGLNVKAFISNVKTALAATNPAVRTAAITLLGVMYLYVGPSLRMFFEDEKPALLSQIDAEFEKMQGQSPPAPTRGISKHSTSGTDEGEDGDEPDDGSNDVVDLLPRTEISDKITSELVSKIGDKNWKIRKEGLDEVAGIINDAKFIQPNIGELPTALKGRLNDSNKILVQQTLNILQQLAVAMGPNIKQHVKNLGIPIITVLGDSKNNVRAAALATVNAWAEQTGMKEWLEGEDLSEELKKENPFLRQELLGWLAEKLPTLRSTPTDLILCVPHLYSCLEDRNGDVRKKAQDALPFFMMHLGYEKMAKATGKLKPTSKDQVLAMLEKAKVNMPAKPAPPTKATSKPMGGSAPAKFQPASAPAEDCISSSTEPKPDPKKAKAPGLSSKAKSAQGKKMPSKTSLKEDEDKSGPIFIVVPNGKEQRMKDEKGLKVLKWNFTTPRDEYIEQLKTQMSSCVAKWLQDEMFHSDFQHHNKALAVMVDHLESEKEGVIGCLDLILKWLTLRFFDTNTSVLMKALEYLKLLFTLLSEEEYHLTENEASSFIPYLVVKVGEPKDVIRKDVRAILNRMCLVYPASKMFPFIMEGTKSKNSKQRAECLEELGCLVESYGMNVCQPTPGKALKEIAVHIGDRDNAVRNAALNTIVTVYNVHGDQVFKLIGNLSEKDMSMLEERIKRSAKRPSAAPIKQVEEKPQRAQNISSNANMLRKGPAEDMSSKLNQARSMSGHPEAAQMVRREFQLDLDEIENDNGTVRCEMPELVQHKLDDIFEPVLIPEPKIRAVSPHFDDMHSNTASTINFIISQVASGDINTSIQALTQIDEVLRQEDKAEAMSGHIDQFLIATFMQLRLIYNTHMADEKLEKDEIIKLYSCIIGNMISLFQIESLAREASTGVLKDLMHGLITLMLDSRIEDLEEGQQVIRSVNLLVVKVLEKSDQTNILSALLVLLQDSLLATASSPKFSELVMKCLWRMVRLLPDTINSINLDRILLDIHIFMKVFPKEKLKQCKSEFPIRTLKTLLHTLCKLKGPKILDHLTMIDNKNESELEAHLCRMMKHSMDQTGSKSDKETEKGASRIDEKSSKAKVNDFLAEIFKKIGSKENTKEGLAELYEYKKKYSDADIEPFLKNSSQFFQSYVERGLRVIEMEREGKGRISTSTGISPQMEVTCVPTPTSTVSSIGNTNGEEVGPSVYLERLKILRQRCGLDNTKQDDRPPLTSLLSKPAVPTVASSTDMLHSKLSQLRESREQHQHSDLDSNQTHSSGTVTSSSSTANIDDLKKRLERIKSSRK

COc1ccc(S(=O)(=O)N2Cc3ccccc3-c3sc(Br)cc32)cc1 [Compound C75]
ch-TOG localization after treatment [1]: enriched at the centrosomes
effect on non-cancerous cells treated with paclitaxel [2]: protective effect
IC50 [3]: 0.431 µM
concentration that prevented microtubule polymerization [4]: 200 nM
